Measurements: patent publication US20240158446A1, “CYCLIC COMPOUND HAVING SELECTIVE INHIBITORY ACTION ON KRAS OVER HRAS AND NRAS” (CHUGAI SEIYAKU KABUSHIKI KAISHA, priority 2021, published 2024)

What was measured:
[1] = target: GDP-bound NRAS wild-type protein (Homo sapiens, UniProt P01111); assay: Binding to NRAS by surface plasmon resonance (SPR), Single Cycle Kinetics; details: ratio of KD for GDP-bound NRAS wild-type protein to KD for KRAS, SPR
[2] = target: GDP-bound HRAS wild-type protein (Homo sapiens, UniProt P01112); assay: Binding to HRAS by surface plasmon resonance (SPR), Single Cycle Kinetics; details: ratio of KD for GDP-bound HRAS wild-type protein to KD for KRAS, SPR
[3] = target: GDP-bound KRAS wild-type protein (Homo sapiens, UniProt P01116); assay: Binding to KRAS by surface plasmon resonance (SPR), Single Cycle Kinetics; details: SPR, Single Cycle Kinetics, GDP-bound KRAS wild-type protein; read-out: KRAS KD
[4] = test system: human lung cancer strain NCI-H441; assay: cells; details: NCI-H441, 96 h, read-out: NCI-H441 IC50 (nM), NCI-H441 cell proliferation, 4 days, CellTiter-Glo;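 note: cell proliferation inhibition after four days measured by CellTiter-Glo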

Sequence of GDP-bound KRAS wild-type protein (P01116 whole entry): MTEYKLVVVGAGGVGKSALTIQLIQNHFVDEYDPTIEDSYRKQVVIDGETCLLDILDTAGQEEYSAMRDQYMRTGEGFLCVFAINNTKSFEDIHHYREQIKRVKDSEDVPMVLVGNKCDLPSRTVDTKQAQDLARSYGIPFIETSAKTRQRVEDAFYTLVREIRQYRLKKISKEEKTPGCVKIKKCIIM
Sequence of GDP-bound HRAS wild-type protein (P01112 whole entry): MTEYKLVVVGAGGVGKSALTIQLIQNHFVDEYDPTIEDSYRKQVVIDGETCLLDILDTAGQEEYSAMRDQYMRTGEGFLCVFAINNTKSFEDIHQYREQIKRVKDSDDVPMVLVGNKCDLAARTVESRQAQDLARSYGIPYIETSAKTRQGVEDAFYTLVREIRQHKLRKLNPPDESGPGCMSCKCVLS
Sequence of GDP-bound NRAS wild-type protein (P01111 whole entry): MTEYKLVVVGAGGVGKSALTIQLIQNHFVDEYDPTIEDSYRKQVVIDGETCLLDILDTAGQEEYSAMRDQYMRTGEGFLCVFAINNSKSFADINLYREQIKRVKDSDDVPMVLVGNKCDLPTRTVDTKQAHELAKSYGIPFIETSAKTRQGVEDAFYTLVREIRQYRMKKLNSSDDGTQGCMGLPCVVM

| Compound | NRAS/KRAS (KD ratio) [1] | HRAS/KRAS (KD ratio) [2] | Kd [3] [nM] | IC50 [4] [nM] |
| --- | --- | --- | --- | --- |
| CCCN(C)C(=O)[C@@H]1CC(=O)N(C)[C@@H](CC2CCC2)C(=O)N[C@@H]([C@@H](C)CC)C(=O)N(C)CC(=O)N(C)[C@H]2C/C=C\CCN(C2=O)[C@@H](Cc2ccc(C(F)(F)F)cc2)C(=O)N(C)CC(=O)N[C@@H](CCc2cc(F)c(C(F)(F)F)c(F)c2)C(=O)N2C[C@H](OCC)C[C@H]2C(=O)NC2(CCC2)C(=O)N(C)[C@@H](C2CCCC2)C(=O)N1C [PP1705] | AA (a compound having 20 or more is denoted as AA) | A (a compound having 10 or more and less than 20 is denoted as A) | 0.14 | 8 |
| CCO[C@@H]1C[C@H]2C(=O)NC3(CCC3)C(=O)N(C)[C@@H](C3CCCC3)C(=O)N(C)[C@H](C3CCC3)CC(=O)N(C)[C@@H](CC3CC3)C(=O)N[C@@H]([C@@H](C)CC)C(=O)N(C)CC(=O)N(C)[C@H]3C/C=C\CCN(C3=O)[C@@H](Cc3ccc(C(F)(F)F)cc3)C(=O)N(C)CC(=O)N[C@@H](CCc3cc(F)c(C(F)(F)F)c(F)c3)C(=O)N2C1 [PP1637] | A (a compound having 10 or more and less than 20 is denoted as A) | A (a compound having 10 or more and less than 20 is denoted as A) | 0.32 | 32.5 |
| C#CC[C@H]1C(=O)N[C@@H]([C@@H](C)CC)C(=O)N(C)CC(=O)N(C)[C@H]2C/C=C\CCN(C2=O)[C@@H](Cc2ccc(C(F)(F)F)cc2)C(=O)N(C)CC(=O)N[C@@H](CCc2cc(F)c(C(F)(F)F)c(F)c2)C(=O)N2C[C@H](F)C[C@H]2C(=O)NC2(CC(C)(C)C2)C(=O)N(C)[C@@H](C2CCCC2)C(=O)N(C)[C@H](C(=O)N(C)CC)CC(=O)N1C [PP1691] | A (a compound having 10 or more and less than 20 is denoted as A) | A (a compound having 10 or more and less than 20 is denoted as A) | 0.06 | 3.1 |
| CC[C@H](C)[C@@H]1NC(=O)[C@H](C2CCC2)N(C)C(=O)C[C@@H](C(=O)N(C)CC)N(C)C(=O)[C@H](C2CCCC2)N(C)C(=O)C2(CC(C)(C)C2)NC(=O)[C@@H]2C[C@H](C)CN2C(=O)[C@H](CCc2cc(F)c(C(F)(F)F)c(F)c2)NC(=O)CN(C)C(=O)[C@H](Cc2ccc(C(F)(F)F)cc2)N2CC/C=C\C[C@@H](C2=O)N(C)C(=O)CN(C)C1=O [PP1984] | A (a compound having 10 or more and less than 20 is denoted as A) | A (a compound having 10 or more and less than 20 is denoted as A) | 0.3 | 50.8 |
| CCO[C@@H]1C[C@H]2C(=O)NC3(CC(C)(C)C3)C(=O)N(C)[C@@H](C3CCCC3)C(=O)N(C)[C@H](C(=O)N(C)CC)CC(=O)N(C)[C@@H](CC(F)F)C(=O)N[C@@H]([C@@H](C)CC)C(=O)N(C)CC(=O)N(C)[C@H]3C/C=C\CCN(C3=O)[C@@H](Cc3ccc(C(F)(F)F)cc3)C(=O)N(C)CC(=O)N[C@@H](CCc3ccc(C(F)(F)F)c(OC)c3)C(=O)N2C1 [PP1655] | A (a compound having 10 or more and less than 20 is denoted as A) | A (a compound having 10 or more and less than 20 is denoted as A) | 0.083 | 1.6 |
| CCC[C@H]1C(=O)N[C@@H]([C@@H](C)CC)C(=O)N(C)CC(=O)N(C)[C@H]2C/C=C\CCN(C2=O)[C@@H](Cc2ccc(C)cc2)C(=O)N(C)CC(=O)N[C@@H](CCc2ccc(C(F)(F)F)c(Cl)c2)C(=O)N2C[C@@H](C)C[C@H]2C(=O)NC2(CC(C)(C)C2)C(=O)N(C)[C@@H](C2CCCC2)C(=O)N(C)[C@H](C(=O)N(C)CC)CC(=O)N1C [PP1893] | A (a compound having 10 or more and less than 20 is denoted as A) | B (a compound having 3 or more and less than 10 is denoted as B) | 0.17 | 18.5 |
